Results on ten molecules are retold here after ChEMBL document CHEMBL1201862, “PubChem BioAssay data set” (2004).

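Method: 48-hour compound exposure of cells in 96-well plates, five concentrations, linear interpolation of endpoints. The concentration for 50% growth inhibition is given as GI50.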 Active and inactive are the calls of the source. Cut-off read from the data, not from the text of the source: active = GI50 up to about 1.1 µM and inactive = higher.

Test systems include HT-29; NCI-H226; UACC-257; BT-549; SNB-75; UACC-62; PC-3; NCI-H23; HOP-62; MOLT-4; Hs-578T; 786-0; UO-31; T47D; HCC 2998.
Common to all, as to experiment: growth of human tumour cells (NCI), 48 h

Regarding `Cc1ccc(NC(=O)c2cc3ccccc3c(/N=N/c3cc(S(=O)(=O)O)ccc3O)c2O)c(C)c1`, the GI50 in the assay on HT-29 was 12.4 µM (inactive); in the assay with NCI-H226, 15.4 µM (inactive); in the assay with UACC-257, 23.8 µM (inactive); in the assay with BT-549, 17.8 µM (inactive); in the assay on SNB-75, 23.3 µM (inactive); in the assay on UACC-62, 15.5 µM (inactive). In addition, the GI50 with PC-3 was 14.5 µM (inactive); in the assay on NCI-H23, 16.6 µM (inactive); in the assay with HOP-62 it was 13.1 µM (inactive); with MOLT-4 it was 17.1 µM (inactive); with Hs-578T, 31.6 µM (inactive); in the assay on 786-0, 16.2 µM (inactive). In addition, the GI50 is 4.44 µM (inactive) in the assay with UO-31 and 24.7 µM (inactive) with T47D.
Take `CN(CCCN=C=S)CCCN1c2ccccc2CCc2ccccc21`: the GI50 in the assay on HT-29 is 1.51 µM (inactive); in the assay on NCI-H226, 2.04 µM (inactive); in the assay with UACC-257, 2.03 µM (inactive); in the assay on BT-549, 2.83 µM (inactive); in the assay on UACC-62, 1.79 µM (inactive); in the assay with PC-3, 1.69 µM (inactive). Also, the GI50 was 1.64 µM (inactive) in the assay with NCI-H23; 1.31 µM (inactive) in the assay on HCC 2998; 1.83 µM (inactive) in the assay with HOP-62; 0.611 µM (active) in the assay with MOLT-4; 2.04 µM (inactive) in the assay with Hs-578T; 1.64 µM (inactive) in the assay with 786-0. The GI50 was 1.62 µM (inactive) with UO-31 and 2.07 µM (inactive) with T47D.
Take `Cc1cc2c(cc1C)[n+]([O-])c(C(=O)N1CCN(c3ccc([N+](=O)[O-])cc3)CC1)c(C)[n+]2[O-]`: the GI50 with HT-29 is > 100 µM (inactive); in the assay on UACC-257 it was > 100 µM (inactive); with BT-549 it was 22.6 µM (inactive); with UACC-62, 41.9 µM (inactive); in the assay with PC-3, 93.3 µM (inactive); in the assay on NCI-H23, 26.5 µM (inactive). In addition, the GI50 in the assay on HCC 2998 was 26.8 µM (inactive); in the assay with HOP-62, 12.8 µM (inactive); with MOLT-4 it was > 100 µM (inactive); in the assay with Hs-578T, 96.2 µM (inactive); with 786-0, 14.3 µM (inactive); in the assay with UO-31, 28.5 µM (inactive). Also, the GI50 in the assay with T47D was 63.2 µM (inactive).
For the molecule `S=C1C=C(c2ccccc2)Sc2ccccc2N1`, the GI50 in the assay on HT-29 was > 100 µM (inactive); with NCI-H226 it was > 100 µM (inactive); with UACC-257 it was 48.6 µM (inactive); in the assay on BT-549, > 100 µM (inactive); in the assay with SNB-75, 61.7 µM (inactive); with UACC-62, > 100 µM (inactive). In addition, the GI50 in the assay on PC-3 is > 100 µM (inactive); in the assay with NCI-H23, > 100 µM (inactive); in the assay on HOP-62, 41.4 µM (inactive); in the assay with MOLT-4 it was 30.4 µM (inactive); in the assay on Hs-578T, 19.5 µM (inactive); with 786-0, > 100 µM (inactive). The GI50 with UO-31 and in the assay on T47D was > 100 µM (inactive) each time.
For the molecule `N=C(N)SCCN1CCCCC1`, the GI50 in the assay on HT-29 was 29.9 µM (inactive); in the assay on NCI-H226, 21.4 µM (inactive); with UACC-257, 18.6 µM (inactive); in the assay with BT-549, 25.1 µM (inactive); in the assay with SNB-75, 37.4 µM (inactive); with UACC-62, 23.4 µM (inactive). In addition, the GI50 is 15.9 µM (inactive) in the assay on PC-3; 26.1 µM (inactive) in the assay with NCI-H23; 46.5 µM (inactive) in the assay on HOP-62; 20.6 µM (inactive) with MOLT-4; 11.7 µM (inactive) in the assay on Hs-578T; 22.3 µM (inactive) in the assay with 786-0. Also, the GI50 was 25.5 µM (inactive) in the assay with UO-31 and 27.5 µM (inactive) in the assay with T47D.
For the molecule `C#CC1(O)C(COP(=O)(O)OC(COCCCCCCCCCCCCCCCCCC)COP(=O)(O)OCC2OC(n3cc(C)c(=O)[nH]c3=O)CC2N=[N+]=[N-])OC(n2ccc(N)nc2=O)C1O` (stereo unspecified), the GI50 in the assay on HT-29 is 1.16 µM (inactive); in the assay with NCI-H226, 1.56 µM (inactive); in the assay on UACC-257, 3.77 µM (inactive); in the assay with BT-549 it was 2.68 µM (inactive); with SNB-75, 2.52 µM (inactive); in the assay on UACC-62, 1.88 µM (inactive). The GI50 in the assay with PC-3 is 2.86 µM (inactive); with NCI-H23 it was 2.61 µM (inactive); with HOP-62 it was 1.82 µM (inactive); in the assay on MOLT-4, 0.347 µM (active); in the assay with Hs-578T it was 5.4 µM (inactive); in the assay with 786-0 it was 0.706 µM (active). Further, the values for the GI50 in the assay with UO-31 and in the assay on T47D were 0.194 µM (active) and 3.73 µM (inactive), respectively.
With `C/C(=N/O)c1cccc(Nc2nc3ccccc3c3[nH]c4ccccc4c23)c1`, the GI50 in the assay with HT-29 is 1.57 µM (inactive); with NCI-H226, 4.8 µM (inactive); with UACC-257 it was 6.08 µM (inactive); with BT-549 it was 12.8 µM (inactive); with UACC-62, 2.28 µM (inactive); with PC-3, 2.93 µM (inactive). In addition, the GI50 with NCI-H23 is 3.08 µM (inactive); in the assay on HOP-62, 2.29 µM (inactive); in the assay on MOLT-4 it was 0.879 µM (active); in the assay on Hs-578T, 3.24 µM (inactive); in the assay with 786-0 it was 2.3 µM (inactive); in the assay with UO-31 it was 2.88 µM (inactive). For the same molecule, in the assay with T47D, the GI50 is 1.52 µM (inactive).
In the case of `CN1C2CCC1CC(CCNC(c1ccccc1)c1ccccc1)C2` (stereo unspecified), the GI50 with HT-29 is 15.2 µM (inactive); in the assay on NCI-H226, 36.9 µM (inactive); in the assay on UACC-257, 16.4 µM (inactive); in the assay with BT-549, 49.3 µM (inactive); in the assay on SNB-75, 47.2 µM (inactive); in the assay with PC-3, 37.6 µM (inactive). The GI50 is > 100 µM (inactive) in the assay on NCI-H23; 19.7 µM (inactive) in the assay with HOP-62; 25.4 µM (inactive) in the assay with MOLT-4; 29.9 µM (inactive) in the assay with Hs-578T; 17.5 µM (inactive) in the assay with 786-0; 17.2 µM (inactive) in the assay on UO-31. Besides, the GI50 in the assay with T47D is 25.5 µM (inactive).
For `COc1cc2cc(C(=O)N3C[C@@H](CCl)c4c3cc(N)c3ccccc43)[nH]c2c(OC)c1OC`, the GI50 with HT-29 is 0.0735 µM (active); with UACC-257, 0.237 µM (active); with BT-549, 0.0442 µM (active); in the assay with SNB-75, < 0.01 µM (active); in the assay with UACC-62 it was 0.000895 µM (active); in the assay with PC-3, 0.00102 µM (active). The GI50 was 0.0138 µM (active) in the assay with NCI-H23; < 0.01 µM (active) with HCC 2998; 0.00755 µM (active) in the assay on HOP-62; 0.00557 µM (active) with MOLT-4; 0.00738 µM (active) in the assay on Hs-578T; 0.103 µM (active) with 786-0. For the same molecule, the GI50 with UO-31 is 0.00622 µM (active); in the assay on T47D it was 0.00104 µM (active).
`CN1C(=O)C2(C)SC1(c1ccccc1)C1C(=O)N(c3ccccc3)C(=O)C12` (stereo unspecified): the GI50 was 76.2 µM (inactive) with HT-29; 60.4 µM (inactive) with NCI-H226; 26.4 µM (inactive) in the assay with UACC-257; > 100 µM (inactive) in the assay with BT-549; 65.3 µM (inactive) in the assay on UACC-62; 43.4 µM (inactive) in the assay with PC-3. For the same molecule, the GI50 is > 100 µM (inactive) in the assay on NCI-H23; > 100 µM (inactive) with HOP-62; 40.9 µM (inactive) in the assay on MOLT-4; > 100 µM (inactive) in the assay with Hs-578T; > 100 µM (inactive) in the assay with 786-0; > 100 µM (inactive) with UO-31. In the assay with T47D, the GI50 was 52.2 µM (inactive).
